“And” between values parts separate entries of the source, which are not always exact repeats. Equal entries are not always repeated. Records with an inconclusive call do not appear. The source made the active and inactive calls.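 How the source made its calls: active means falling signal with fitted half-maximal potency no higher than twice the top valid tested dose; inconclusive means poor fit quality, or flat fit spanning -70% to -30%; inactive means potency over limit, rising signal, or flat fit inside 30%.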

What is called IC50 is the concentration that inhibits the measured activity by half.

The assay concerns Cryptococcus neoformans growth, Alamar Blue, 24 h. Nature of the assay: fungal growth arrest, C. neoformans – Alamar Blue, cherry-picks, dose response (AID 686998).
For the molecule `COC(=O)C1=C(C)N(Cc2ccc(Cl)cc2)C(=S)NC1c1ccc(F)cc1` (stereo not given), the IC50 was 14.8 µM and 20.9 µM.

With `Cc1ccccc1-n1ncc2c(SCC(=O)N3c4ccccc4CC3C)ncnc21` (stereo not given), the IC50 was 0.28 µM.

For the molecule `O=C(COc1ccc2c(c1)CCC2)NCc1ccc(Cl)cc1`, the IC50 is 34.2 µM.

Take `Cc1ccc(/C=C2\SC(=S)N(NS(=O)(=O)c3ccc(C)cc3)C2=O)cc1`: the IC50 is 12.7 µM.

As for `Cc1ccccc1NC(=O)C(NC1CCCCC1)C(C)C` (stereo not given), the half-inhibitory concentration (IC50) is 1.46 µM.

In the case of `O=C(C[C@H]1CC[C@H]2[C@@H](COC[C@H](O)CN2Cc2cc(F)cc(F)c2)O1)Nc1nccs1`, the IC50 is > 70 µM (inactive).

In the case of `COC(=O)C1=C(C)N(Cc2ccccc2)C(=S)NC1c1cccc(Br)c1` (stereo not given), the IC50 is 6.55 µM and 8.35 µM.

`COc1ccc(NC(=S)NCc2ccccc2Cl)c(OC)c1`: the IC50 is 43.4 µM.

`COC(=O)C1=C(C)N(Cc2ccc(Br)cc2)C(=S)NC1c1ccccc1` (stereo not given): the IC50 is 13.1 µM.

As to `CC(=O)N1[C@H](CO)[C@H](c2ccc(-c3ccccc3)cc2)[C@@H]1CNC(=O)C1CC1`, the IC50 is 4.92 µM.

Take `COC(=O)C1=C(C)N(Cc2ccc(Br)cc2)C(=S)NC1c1ccc(OC)cc1` (stereo not given): the IC50 was 26 µM and 32.8 µM.

For `C[C@H](CO)N1C[C@H](C)[C@H](CN(C)Cc2ccc(Cl)c(Cl)c2)Oc2c(NC(=O)Nc3ccccc3)cccc2C1=O`, the IC50 is 10.8 µM.

Turning to `S=C(NCCCc1ccccc1)Nc1ccccc1`, the IC50 is 8.77 µM.

Turning to `C[C@@H]1CCCCO[C@@H](CN(C)C(=O)NC2CCCCC2)[C@H](C)CN([C@@H](C)CO)C(=O)c2cc(NS(=O)(=O)c3cn(C)cn3)ccc2O1`, the IC50 is 44.3 µM.

As to `O=C(c1cccnc1)N1C[C@H]2[C@@H](c3ccccc31)[C@@H](CO)N2C(=O)Nc1ccc(F)cc1`, the IC50 was 6.72 µM.

Take `Fc1cccc(CCN2C(=S)NC[C@@H]2Cc2ccccc2)c1`: the IC50 was 7.13 µM.

For the molecule `CCC(C)(C(=O)Nc1ccccc1C)N(C(=O)CNC(C)=O)c1ccccc1C` (stereo not given), the IC50 was less than 0.26 µM.

As for `COC(=O)C1=C(C)N(Cc2ccc(F)cc2)C(=S)NC1c1cccc(OC)c1` (stereo not given), the IC50 was 31 µM.

For the molecule `CNC[C@H]1Oc2cc(Br)ccc2S(=O)(=O)N([C@H](C)CO)C[C@H]1C`, the IC50 was > 70 µM (inactive).

As for `C[C@H](CO)N1C[C@H](C)[C@@H](CN(C)C(=O)Nc2ccc3c(c2)OCO3)Oc2ccc(NS(=O)(=O)c3cccs3)cc2C1=O`, the IC50 is 64.4 µM.

Take `COC(=O)C1=C(C)N(Cc2ccc(F)cc2)C(=S)NC1c1ccc(Cl)cc1` (stereo not given): the IC50 was 11.4 µM.

Consider `C[C@H](CO)N1C[C@H](C)[C@H](CN(C)C(=O)NC2CCCCC2)OCCCC[C@H](C)Oc2ccc(NS(=O)(=O)c3cn(C)cn3)cc2C1=O`, for which the half-maximal inhibitory concentration (IC50) is 47.7 µM.

For the molecule `CC(C)NC(=O)N(C)C[C@@H]1Oc2c(NC(=O)C3CCCCC3)cccc2C(=O)N([C@@H](C)CO)C[C@@H]1C`, the IC50 was 8.12 µM.

For `Cc1ccc(S(=O)(=O)N(C)C[C@H]2Oc3c(cccc3N(C)C)C(=O)N([C@@H](C)CO)C[C@H]2C)cc1`, the IC50 was > 70 µM (inactive).

Turning to `O=C(CCN1CCCCC1)NCC[C@@H]1CC[C@H](NC(=O)c2ccc(F)cc2)[C@@H](CO)O1`, the IC50 is > 70 µM (inactive).

As for `Cc1ccc(C2CCN(C(=S)NC3CCCCC3)C2)cc1` (stereo not given), the IC50 was 9.63 µM.

Turning to `CC(=O)N[C@H]1CC[C@H](CCNC(=O)C2CCC2)O[C@@H]1CO`, the IC50 was > 70 µM (inactive).

As for `COCC#Cc1cnc2c(c1)C(=O)N([C@@H](C)CO)C[C@H](C)[C@H](CN(C)C(=O)Nc1ccc(OC)cc1)O2`, the IC50 is > 70 µM (inactive).

For `CC(C)NC(=O)Nc1ccc2c(c1)CC(=O)N([C@H](C)CO)C[C@H](C)[C@@H](CN(C)C(=O)Nc1ccc3c(c1)OCO3)O2`, the IC50 is > 70 µM (inactive).

Take `CC(C)c1ccc(OCC(=O)NC(C)c2ccccc2)cc1` (stereo not given): the IC50 is 49.5 µM.

`COc1ccc(C(=O)NC(=S)Nc2ccccc2N2CCOCC2)cc1[N+](=O)[O-]`: the 50% inhibitory concentration (IC50) is 26.1 µM.

As for `CN1c2ccc(-c3ccc(F)cc3)cc2[C@@H]2[C@@H](CCN2C(=O)C2CCOCC2)[C@@H]1CO`, the IC50 was 0.756 µM.

Turning to `COC(=O)C1=C(C)N(Cc2ccccc2)C(=O)N[C@H]1c1cccc(F)c1`, the IC50 is 53.8 µM.

On to `COc1ccc(C(=O)NC(=S)Nc2ccccc2N2CCCCC2)cc1[N+](=O)[O-]`, for which the IC50 was 1.49 µM.

With `C[C@H]1CN([C@@H](C)CO)C(=O)Cc2cc(NC(=O)C3CC3)ccc2O[C@@H]1CN(C)C(=O)Nc1cccc2ccccc12`, the IC50 was 53.6 µM.

Turning to `CC=Cc1ccc2n(c1=O)C[C@@H]1[C@@H](CO)[C@H](C(=O)NCc3ccc4c(c3)OCO4)[C@H]2N1C(=O)C1CC1` (mixture of isomers), the IC50 was 23.3 µM.

Regarding `COC(=O)C1=C(C)N(Cc2ccccc2)C(=S)N[C@H]1c1ccc(Br)cc1`, the IC50 was 4.51 µM.

For the molecule `C[C@@H]1CN([C@H](C)CO)C(=O)CCCn2nncc2CO[C@H]1CN(C)Cc1cccc(C(F)(F)F)c1`, the IC50 is 4.17 µM.

On to `COC(=O)C1=C(C)N(CC(C)C)C(=S)NC1c1ccc(-c2ccccc2)cc1` (stereo not given), for which the IC50 is 3.78 µM and 3.99 µM.

As to `Cc1ccc(C2CC(c3cccs3)=NN2C(=O)c2ccc(Br)o2)cc1` (stereo not given), the IC50 was 0.375 µM.

Take `C[C@H](NC(=O)C[C@H]1CC[C@@H](NC(=O)Cc2ccccn2)[C@@H](CO)O1)c1ccccc1`: the half-inhibitory concentration (IC50) is 47.2 µM.

For `COC(=O)C1=C(C)N(Cc2ccc(F)cc2)C(=S)NC1c1cccc(F)c1` (stereo not given), the IC50 was 22.1 µM.

Regarding `COC(=O)C1=C(C)N(Cc2ccc(F)cc2)C(=S)NC1c1cccc(Cl)c1` (stereo not given), the half-maximal inhibitory concentration (IC50) is 10.6 µM.

For `Cc1c(C(=O)NC(=S)Nc2ccccc2N2CCCC2)cccc1[N+](=O)[O-]`, the IC50 was 2.71 µM.

For `CC(C)NC(=O)N(C)C[C@H]1Oc2c(NS(=O)(=O)c3ccc(Cl)cc3)cccc2C(=O)N([C@@H](C)CO)C[C@@H]1C`, the IC50 is 41.8 µM.

For the molecule `COC(=O)C1=C(C)N(Cc2ccc(Cl)cc2)C(=S)NC1c1cccc(OC)c1` (stereo not given), the IC50 is 6.55 µM and 8.91 µM.

As for `COc1ccc(NC(=O)c2cn(C)c(=O)c3cc(OC)c(OC)cc23)c(OC)c1`, the IC50 was > 70 µM (inactive).

In the case of `O=C(CN1CCOCC1)N[C@@H]1CC[C@@H](CCNC(=O)C2CCC2)O[C@@H]1CO`, the IC50 was 43.7 µM.

`COC(=O)C1=C(C)N(Cc2ccc(Br)cc2)C(=S)NC1c1ccc(F)cc1` (stereo not given): the IC50 was 5.35 µM.

For `CC(C)CC#Cc1ccc2c(c1)O[C@H](CN(C)C(=O)C1CCC1)[C@@H](C)CN([C@@H](C)CO)S2(=O)=O`, the IC50 is 43.5 µM.

In the case of `CC(=O)c1cccc(NC(=S)NC2CCCCCCC2)c1`, the IC50 was 10.7 µM.

For the molecule `COc1ccc(CNC(=S)NCc2ccc(OC(C)C)cc2)cc1`, the IC50 was 30.4 µM.

As for `CCN1C(=S)N[C@@H](c2cccc(F)c2)C(C(=O)OC)=C1C`, the IC50 is > 70 µM (inactive).

Take `CCC(=O)N1[C@H](CO)[C@@H](c2ccc(-c3cccnc3)cc2)[C@@H]1CN(C)C(C)=O`: the IC50 was 33.6 µM.

Consider `Cc1ccc(S(=O)(=O)N2CC[C@@H]3[C@H](CO)Nc4ccc(-c5ccccc5F)cc4[C@@H]32)cc1`, for which the IC50 was 0.997 µM.

The values are drawn from PubChem BioAssay AID686998 (Broad Institute, 2013).
